Holding throughout (format): cell-based
Common to all, as to conditions: alone, 7 days after inoculation

For one assay, the system named is Botrytis cinerea. Briefly: Microtiterplate test, activity against the grey mold Botrytis cinerea.
The subject of another assay is Phytophthora infestans.
A further assay deals with Leptosphaeria nodorum. Briefly: Microtiter test, activity against wheat leaf spots caused by Leptosphaeria nodorum.
Assay [1] relates to Qol resistant iso-late of Pyrenophora teres. Nature of the assay: Microtiter test, activity against Pyrenophora teres.
Another assay relates to Pyricularia oryzae.

From patent publication US20210251232A1, “USE OF FUNGICIDAL ACTIVE COMPOUND I DERIVATIVE AND MIXTURES THEREOF IN SEED APPLICATION AND TREATMENT METHODS” (BASF SE, priority 2018, published 2021) come the findings set out here.

Where two headings read alike, the source gives them in different places.

In the case of `N#Cc1ccc(Oc2ccc(C(F)(F)C(O)(Cn3ncnc3S)c3ccc(F)cc3F)nc2)cc1` (stereo not shown) [Compound I, 4-[[6-[2-(2,4-difluorophenyl)-1,1-difluoro-2-hydroxy-3-(5-sulfanyl-1,2,4-triazol-1-yl)propyl]-3-pyridyl]oxy]benzonitrile], the Observed efficacy is reported as 24 in the assay with Botrytis cinerea (4 ppm, 405 nm); 24 with Phytophthora infestans (4 ppm, 405 nm, 0 = growth as untreated control, 100 = no growth); 0 in the assay with Leptosphaeria nodorum (0.25 ppm); 20 in the assay with Leptosphaeria nodorum (1 ppm); 37 in the assay with Leptosphaeria nodorum (4 ppm, 405 nm); 0 in assay [1] (4 ppm, 405 nm). Besides, in the assay on Pyricularia oryzae (1 ppm, 405 nm), the Observed efficacy came out at 0.

Turning to `CN/C(=N\[N+](=O)[O-])NCc1cnc(Cl)s1` [Clothianidin], in the assay on Pyricularia oryzae (63 ppm), the Observed efficacy worked out at 0.

Turning to `N#Cc1c[nH]cc1-c1cccc2c1OC(F)(F)O2` [Fludioxonil], the Observed efficacy with Pyricularia oryzae (0.016 ppm) was 9; in the assay on Pyricularia oryzae (0.063 ppm), 17; with Pyricularia oryzae (0.25 ppm), 26.

For `CC(O)(Cn1cncn1)c1ccc(Oc2ccc(Cl)cc2)cc1C(F)(F)F` (stereo not shown) [Mefentrifluconazol], the Observed efficacy in the assay on Botrytis cinerea (0.016 ppm) amounted to 0; with Phytophthora infestans (0.016 ppm) it was 0; in the assay with Leptosphaeria nodorum (0.016 ppm) it was 39; in assay [1] (0.25 ppm) it was 31.

Regarding `COC(=O)NC(=S)Nc1ccccc1NC(=S)NC(=O)OC` [Thiophanate methyl], in the assay with Pyricularia oryzae (4 ppm), the Observed efficacy came out at 0.

Molecule `CC(c1ccc(C(F)(F)F)nc1)S(C)(=O)=NC#N` (stereo not shown) [Sulfoxaflor] returned an Observed efficacy with Pyricularia oryzae (63 ppm) of 0.

`O=[N+]([O-])NC1=NCCN1Cc1ccc(Cl)nc1` [Imidacloprid]: in the assay with Pyricularia oryzae (63 ppm), the Observed efficacy is 0.

Turning to Spinetoram, the Observed efficacy in the assay with Pyricularia oryzae (63 ppm) amounted to 0.

In the assay on Pyricularia oryzae (16 ppm), `Cc1cc(C(F)(F)F)nn1CC(=O)N1CCC(c2nc(C3=NOC(c4c(F)cccc4F)C3)cs2)CC1` (stereo not shown) [Oxathiapirolin] returned an Observed efficacy of 0.

The molecule `COC(=O)N(OC)c1ccccc1COc1ccn(-c2ccc(Cl)cc2)n1` [Pyraclostrobin] gave an Observed efficacy in the assay on Leptosphaeria nodorum (0.016 ppm) of 42.

`CC(C)C1CCC(Cc2ccc(Cl)cc2)C1(O)Cn1cncn1` (stereo not shown) [Ipconazol] registered an Observed efficacy with Pyricularia oryzae (16 ppm) of 0.
